According to patent publication US6552068B1, “3-ethyl-, 3-propyl- or 3-butyl-chroman and thiochroman derivatives” (Chugai Seiyaku Kabushiki Kaisha, priority 1999, dated 2003):

Tested on: ovariectomized mice administered with 17β-estradiol (increase in uterine weight)
Assay: Anti-estrogenic activity (oral administration): inhibition of estradiol-induced increase in uterine weight
Type: in vivo
Conditions: 10 mg/kg p.o. once a day for 3 days, suspended in 5% arabic gum; ovariectomized ICR mice given 17β-estradiolbenzoate 0.1 μg/mouse s.c. for 3 days; uteri weighed 24 hours after last administration
Procedure: Test compounds were assayed for their oral anti-estrogenic activity in the following manner. In this experiment, the compounds prepared in Examples mentioned above were used as test compounds. As control compounds, the following two were used: a compound described in Example 7 of WO98/25916 and a compound corresponding to general formula (1) of the present invention, provided that R1 was a methyl group, i.e., 10-[(3RS,4RS)-7-hydroxy-3-(4-hydroxyphenyl)-3-methylthiochroman-4-yl]-2-(4,4,5,5,5-pentafluoropentyl)decanoic acid, which had been synthesized according to Reaction Schemes 1 to 7 mentioned above.
In this experiment, each of the test and control compounds was suspended in 5% arabic gum solution and orally administered for 3 days on a once-a-day basis. After 24 hours from the last administration, the test animals were sacrificed and the uteri were removed and weighed.

Row | SMILES | Inhibition (%) of the increase in uterine weight [%]
1 | CCC[C@@]1(c2ccc(O)cc2)CSc2cc(O)ccc2[C@@H]1CCCCCCCCCC(CCCC(F)(F)C(F)(F)F)C(=O)O (mixture of isomers) [Example 38, 11-[(3RS,4RS)-7-hydroxy-3-(4-hydroxyphenyl)-3-propylthiochroman-4-yl]-2-(4,4,5,5,5,-pentafluoropentyl)undecanoic acid] | 84

Same assay, conditions: po; 10 mg/kg p.o. once a day for 3 days, suspended in 5% arabic gum; ovariectomized ICR mice given 17β-estradiolbenzoate 0.1 μg/mouse s.c. for 3 days; uteri weighed 24 hours after last administration

Row | SMILES | inhibition in vivo at 10 mg/kg [%]
2 | C[C@@]1(c2ccc(O)cc2)CSc2cc(O)ccc2[C@@H]1CCCCCCCCC(CCCC(F)(F)C(F)(F)F)C(=O)O (mixture of isomers) [10-[(3RS,4RS)-7-hydroxy-3-(4-hydroxyphenyl)-3-methylthiochroman-4-yl]-2-(4,4,5,5,5-pentafluoropentyl)decanoic acid, reference compound] | 75
3 | CC[C@]1(c2ccc(O)cc2)CSc2cc(O)ccc2[C@H]1CCCCCCCCC(CCCCCC(F)(F)C(F)(F)F)C(=O)O (mixture of isomers) [Example 14, 10-[(3RS,4RS)-3-ethyl-7-hydroxy-3-(4-hydroxyphenyl)thiochroman-4-yl]-2-(6,6,7,7,7-pentafluoroheptyl)decanoic acid] | 81
4 | CC[C@]1(c2ccc(O)cc2)CSc2cc(O)ccc2[C@H]1CCCCCCCCC(CCCCC(F)(F)C(F)(F)F)C(=O)O (mixture of isomers) [Example 15, 10-[(3RS,4RS)-3-ethyl-7-hydroxy-3-(4-hydroxyphenyl)thiochroman-4-yl]-2-(5,5,6,6,6-pentafluorohexyl)decanoic acid] | 92
5 | CC[C@]1(c2ccc(O)cc2)CSc2cc(O)ccc2[C@H]1CCCCCCCCC(CCCC(F)(F)C(F)(F)F)C(=O)O (mixture of isomers) [Example 16, 10-[(3RS,4RS)-3-ethyl-7-hydroxy-3-(4-hydroxyphenyl)thiochroman-4-yl]-2-(4,4,5,5,5-pentafluoropentyl)decanoic acid] | 96
6 | CC[C@]1(c2ccc(O)cc2)CSc2cc(O)ccc2[C@H]1CCCCCCCCCC(CCCC(F)(F)C(F)(F)F)C(=O)O (mixture of isomers) [Example 20, 11-[(3RS,4RS)-3-ethyl-7-hydroxy-3-(4-hydroxyphenyl)thiochroman-4-yl]-2-(4,4,5,5,5-pentafluoropentyl)undecanoic acid] | 91
7 | CC[C@@]1(c2ccc(O)cc2)COc2cc(O)ccc2[C@@H]1CCCCCCCCCC(CCCCCC(F)(F)C(F)(F)F)C(=O)O (mixture of isomers) [Example 22, 11-[(3RS,4RS)-3-ethyl-7-hydroxy-3-(4-hydroxyphenyl)chroman-4-yl]-2-(6,6,7,7,7-pentafluoroheptyl)undecanoic acid] | 83
8 | CCC[C@@]1(c2ccc(O)cc2)CSc2cc(O)ccc2[C@@H]1CCCCCCCCC(CCCC(F)(F)C(F)(F)F)C(=O)O (mixture of isomers) [Example 29, 10-[(3RS,4RS)-7-hydroxy-3-(4-hydroxyphenyl)-3-propylthiochroman-4-yl]-2-(4,4,5,5,5-pentafluoropentyl)decanoic acid] | 91
9 | CC[C@@]1(c2ccc(O)cc2)CSc2cc(O)ccc2[C@@H]1CCCCCCCCCC(CCC(F)(F)C(F)(F)C(F)(F)C(F)(F)F)C(=O)O (mixture of isomers) [Example 30, 11-[(3RS,4RS)-3-ethyl-7-hydroxy-3-(4-hydroxyphenyl)thiochroman-4-yl]-2-(3,3,4,4,5,5,6,6,6-nonafluorohexyl)undecanoic acid] | 89
10 | CC[C@@]1(c2ccc(O)cc2)CSc2cc(O)ccc2[C@@H]1CCCCCCCCC(CCC(F)(F)C(F)(F)C(F)(F)C(F)(F)F)C(=O)O (mixture of isomers) [Example 31, 10-[(3RS,4RS)-3-ethyl-7-hydroxy-3-(4-hydroxyphenyl)thiochroman-4-yl]-2-(3,3,4,4,5,5,6,6,6-nonafluorohexyl)decanoic acid] | 85
11 | CC[C@@]1(c2ccc(O)cc2)COc2cc(O)ccc2[C@@H]1CCCCCCCCCC(CCC(F)(F)C(F)(F)C(F)(F)C(F)(F)F)C(=O)O (mixture of isomers) [Example 32, 11-[(3RS,4RS)-3-ethyl-7-hydroxy-3-(4-hydroxyphenyl)chroman-4-yl]-2-(3,3,4,4,5,5,6,6,6-nonafluorohexyl)undecanoic acid] | 82
12 | CC[C@@]1(c2ccc(O)cc2)COc2cc(O)ccc2[C@@H]1CCCCCCCCC(CCCC(F)(F)C(F)(F)C(F)(F)C(F)(F)F)C(=O)O (mixture of isomers) [Example 34, 10-[(3RS,4RS)-3-ethyl-7-hydroxy-3-(4-hydroxyphenyl)chroman-4-yl]-2-(4,4,5,5,6,6,7,7,7-nonafluoroheptyl)decanoic acid] | 90
13 | CC[C@@]1(c2ccc(O)cc2)COc2cc(O)ccc2[C@@H]1CCCCCCCCCC(CCCC(F)(F)C(F)(F)C(F)(F)C(F)(F)F)C(=O)O (mixture of isomers) [Example 35, 11-[(3RS,4RS)-3-ethyl-7-hydroxy-3-(4-hydroxyphenyl)chroman-4-yl]-2-(4,4,5,5,6,6,7,7,7-nonafluoroheptyl)undecanoic acid] | 93
14 | CCC[C@@]1(c2ccc(O)cc2)CSc2cc(O)ccc2[C@@H]1CCCCCCCCC(CCCCC(F)(F)C(F)(F)F)C(=O)O (mixture of isomers) [Example 36, 10-[(3RS,4RS)-7-hydroxy-3-(4-hydroxyphenyl)-3-propylthiochroman-4-yl]-2-(5,5,6,6,6-pentafluorohexyl)decanoic acid] | 89
15 | CCC[C@@]1(c2ccc(O)cc2)CSc2cc(O)ccc2[C@@H]1CCCCCCCCCC(CCC(F)(F)C(F)(F)C(F)(F)C(F)(F)F)C(=O)O (mixture of isomers) [Example 39, 11-[(3RS,4RS)-7-hydroxy-3-(4-hydroxyphenyl)-3-propylthiochroman-4-yl]-2-(3,3,4,4,5,5,6,6,6-nonafluorohexyl)undecanoic acid] | 84
16 | CCC[C@@]1(c2ccc(O)cc2)COc2cc(O)ccc2[C@@H]1CCCCCCCCC(CCCCC(F)(F)C(F)(F)F)C(=O)O (mixture of isomers) [Example 40, 10-[(3RS,4RS)-7-hydroxy-3-(4-hydroxyphenyl)-3-propylchroman-4-yl]-2-(5,5,6,6,6-pentafluorohexyl)decanoic acid] | 82
17 | CCC[C@@]1(c2ccc(O)cc2)COc2cc(O)ccc2[C@@H]1CCCCCCCCC(CCC(F)(F)C(F)(F)C(F)(F)C(F)(F)F)C(=O)O (mixture of isomers) [Example 41, 10-[(3RS,4RS)-7-hydroxy-3-(4-hydroxyphenyl)-3-propylchroman-4-yl]-2-(3,3,4,4,5,5,6,6,6-nonafluorohexyl)decanoic acid] | 89
18 | CCC[C@@]1(c2ccc(O)cc2)COc2cc(O)ccc2[C@@H]1CCCCCCCCC(CCCC(F)(F)C(F)(F)C(F)(F)C(F)(F)F)C(=O)O (mixture of isomers) [Example 42, 10-[(3RS,4RS)-7-hydroxy-3-(4-hydroxyphenyl)-3-propylchroman-4-yl]-2-(4,4,5,5,6,6,7,7,7-nonafluoroheptyl)decanoic acid] | 95
19 | CCC[C@@]1(c2ccc(O)cc2)COc2cc(O)ccc2[C@@H]1CCCCCCCCCC(CCCC(F)(F)C(F)(F)F)C(=O)O (mixture of isomers) [Example 43, 11-[(3RS,4RS)-7-hydroxy-3-(4-hydroxyphenyl)-3-propylchroman-4-yl]-2-(4,4,5,5,5-pentafluoropentyl)undecanoic acid] | 85
20 | CCC[C@@]1(c2ccc(O)cc2)COc2cc(O)ccc2[C@@H]1CCCCCCCCCC(CCCCC(F)(F)C(F)(F)F)C(=O)O (mixture of isomers) [Example 44, 11-[(3RS,4RS)-7-hydroxy-3-(4-hydroxyphenyl)-3-propylchroman-4-yl]-2-(5,5,6,6,6-pentafluorohexyl)undecanoic acid] | 84
21 | CCC[C@@]1(c2ccc(O)cc2)COc2cc(O)ccc2[C@@H]1CCCCCCCCCC(CCC(F)(F)C(F)(F)C(F)(F)C(F)(F)F)C(=O)O (mixture of isomers) [Example 45, 11-[(3RS,4RS)-7-hydroxy-3-(4-hydroxyphenyl)-3-propylchroman-4-yl]-2-(3,3,4,4,5,5,6,6,6-nonafluorohexyl)undecanoic acid] | 85
22 | CCC[C@@]1(c2ccc(O)cc2)COc2cc(O)ccc2[C@@H]1CCCCCCCCCC(CCCC(F)(F)C(F)(F)C(F)(F)C(F)(F)F)C(=O)O (mixture of isomers) [Example 46, 11-[(3RS,4RS)-7-hydroxy-3-(4-hydroxyphenyl)-3-propylchroman-4-yl]-2-(4,4,5,5,6,6,7,7,7-nonafluoroheptyl)undecanoic acid] | 94
23 | CCCC[C@@]1(c2ccc(O)cc2)COc2cc(O)ccc2[C@@H]1CCCCCCCCC(CCCC(F)(F)C(F)(F)C(F)(F)C(F)(F)F)C(=O)O (mixture of isomers) [Example 47, 10-[(3RS,4RS)-3-butyl-7-hydroxy-3-(4-hydroxyphenyl)chroman-4-yl]-2-(4,4,5,5,6,6,7,7,7-nonafluoroheptyl)decanoic acid] | 89
